Results reported in US10328079B2, “[6R]-MTHF multiple bolus administration in 5-fluorouracil based chemotherapy” (Isofol Medical AB, priority 2017, dated 2019).
Several values for one entry are separate records, joined by “and”; a condition that tells them apart may be missing. Identical values can stand only once. Entries after “also recorded” stand apart in the source; their conditions may differ. Like-named read-outs stand apart in the source and are kept apart here.

Legend:
colorectal tumors = details: cited from earlier work
solid tumors = details: cited from earlier work
[1] = tested on: advanced and recurring head and neck squamous cell cancer; details: 5-FU in combination therapies with platinum compounds; cited from earlier work
[2] = tested on: previously untreated metastatic colorectal cancer; details: Phase II Trial; cited from earlier work
pancreas cancer = details: CoFactor combined with 5-FU; cited from earlier work
[3] = Phase IIb, first-line patients, in combination with 5-FU; cited from earlier work
colorectal cancer = details: cited from earlier work; for ORR: Phase IIb, first-line patients, in combination with 5-FU
[4] = tested on: thymidylate synthase (TS); assay: Historical group comparison study: incremental plasma dUrd (marker of TS inhibition) 24 h after 5-FU bolus plus folate; type: in vivo, human
Description: The elevation of plasma 2′-deoxyuridine (dUrd) is a marker of TS inhibition. (Ford et al. (2002) Clinical Cancer Research, 8(1): 103-109).
The historical group comparison study was conducted as follows:
All patients were treated with a standard dose of 500 mg 5-FU given as a bolus injection plus the respective folate [6R]-MTHF or LV, also given as bolus injections.
In Gothenburg (Sweden), for almost two decades, clinical, treatment and outcomes data on all patients with CRC have been collected at the local university hospital (Östra sjukhuset—Sahlgrenska Universitetssjukhuset). Plasma and tissue samples have been stored in a biobank under appropriate physical conditions for long term storage. The database and the biobank operate under the auspices of the relevant ethical and regulatory permissions. Patients having been treated with the standard 5-FU dose, 500 mg/m2 plus i.v. bolus LV, 60 mg/m2 were randomly drawn from the databank. For all patients, stored plasma samples were used for determination of dUrd.
Twenty-four patients with metastatic colorectal cancer (mCRC) treated with 5-FU plus 60 mg/m^2 LV were drawn at random from the database and levels of dUrd were determined at t0 and t24 from two treatment cycles for each patient and the mean values and standard deviations for the differences between t24 and t0 were calculated in the same way as for the [6R]-MTHF patients. Since LV is a “racemic” 50:50 mixture of the natural (S-formyl-tetrahydrofolate) and unnatural (R-formyl-tetrahydrofolate) isomers, the active isomer constitutes one half of the racemic LV doses given. The molecular weights for LV and [6R]-MTHF are very similar and therefore 60 mg of LV may be considered as equimolar with 30 mg of [6R]-MTHF.
All patients were enrolled in the ISO-CC-005 study and measured during two consecutive treatment cycles with 5-FU. Values for dUrd were measured immediately before injection of 5-FU (to) and after 24 hours (t24). Mean values and standard deviations for differences between t24 and to were calculated for the patients on each dose level of 30 and 60 mg/m^2 respectively.
The differences between all three groups were tested by means of the […] and thereafter the difference between the two equimolar groups LV 60 mg/m2 and 6R-MTHF 30 mg/m^2 was tested by means of the Mann-Whitney U test. P-values less than 0.05 were considered significant.
Plasma dUrd was determined by a method comprising liquid chromatography followed by tandem mass spectrometry broadly summarized as follows. Plasma samples were removed from −80° C. freezer, trichloroacetic acid was added to the plasma, and the samples mixed and centrifuged. The supernatant was filtered in a 10 kDa molecular weight cut-off membrane filter and again centrifuged for 30 min. The solution at the bottom of the tube was then ready for LC-MS/MS analysis. Calibration samples were prepared in the same way using blank plasma samples and different internal standard concentrations. The injection volume into LC-MS/MS was 40 μl. Deoxyuridine and chlorodeoxyuridine were ionized by electrospray negative mode. MS parameters were optimized for maximum response of all folates. A MS/MS acquisition method (multiple reaction monitoring) was utilized.

[5] = ISO-CC-005 Phase I/II trial: safety / adverse events; type: in vivo, human
Source text: A maximum of 63 Stage IV CRC patients eligible for 1st, 2nd or 3rd line treatment are planned to be enrolled in this study disposed as follows: three to six patients in each dose cohort, and three additional patients in one dose cohort in each treatment arm according to the following study design (Table 1). ISO-CC-005 is an open clinical phase I/II tolerability and dose definition study designed to evaluate safety and define the [6R]-MTHF dose for continued development. It evaluates four doses of [6R]-MTHF in combination with 5-FU with or without the different combinations of irinotecan or oxaliplatin and bevacizumab in patients with metastatic Colorectal Cancer using 4 different protocols: • MOD+5-FU: [6R]-MTHF in combination with 5-FU only, similar to Nordic FLV protocol • MOD+[…] in combination with 5-FU and Irinotecan, similar to Nordic FLIRI protocol • MOD+FLOX: [6R]-MTHF in combination with 5-FU and Oxaliplatin, similar to Nordic FLOX protocol • MOFOX: [6R]-MTHF in combination with 5-FU and Oxaliplatin, similar to FOLFOX-6 protocol By September 2017 the gastrointestinal (GI) adverse effects (AEs) for in total 37 patients had been analyzed. Of the 37 patients, only 2 (two) patients (5.4%) reported a GI adverse event (defined as nausea, vomiting and/or dehydration) of grade 3 or greater.

[6] = tested on: stage IV colorectal cancer; assay: ISO-CC-005 Phase I/II trial: tumor response according to RECIST 1.1; type: in vivo, human; details: for ORR (objective response rate): after 8 weeks' treatment, with 5-FU
Source text: As used herein, the term ORR shall refer to the Objective Response Rate, i.e. the proportion of patients with reduction in tumor burden of a predefined amount.
Complete Response (CR): • Disappearance of all target lesions. Any pathological lymph nodes (whether target or non-target) must have reduction in short axis to <10 mm.
(Note: the appearance of one or more new lesions is also considered progression).
Stable Disease (SD): • Neither sufficient shrinkage to qualify for PR nor sufficient increase to qualify for PD, taking as reference the smallest sum diameters while on study. (Eisenhauer E A, Therasse P, Bogaerts J, Schwartz L H, Sargent D, Ford R, et al. New response evaluation criteria in solid tumors: revised RECIST guideline (version 1.1). Eur J Cancer. 2009 January; 45(2):228-47)
The safety and efficacy of [6R]-5,10-methylenetetrahydrofolate ([6R]-MTHF) is analyzed in an open-label, multiple-site, Phase I/II Dose Cohort Trial (ISO-CC-005) in combination with a fixed dose of 5-Fluorouracil (5-FU) alone or together with a fixed dose of Bevacizumab, Oxaliplatin or Irinotecan in patients with stage IV colorectal cancer. A maximum of 63 Stage IV CRC patients eligible for 1st, 2nd or 3rd line treatment are planned to be enrolled in this study disposed as follows: three to six patients in each dose cohort, and three additional patients in one dose cohort in each treatment arm according to the following study design (Table 1).
[6R]-5,10-Methylenetetrahydrofolic acid ([6R]-MTHF) is formulated as a lyophylised powder containing 100 mg per vial (calculated as free acid). Dosing: Rapid i.v. bolus injections at a fixed dose of 30, 60, 120 or 240 mg/m^2, will be administered approximately 30 minutes after administration of 5-FU on Day 1 and Day 2 in each treatment cycle in all dose cohorts of the study (i.e. regardless of treatment arm). The regimen will be repeated every second week for up to eight (8) cycles, i.e. up to sixteen (16) weeks.
5-FU (5-fluorouracil) is formulated as injection solution. Dosing: 5-FU will be administered as i.v. bolus injections on Day 1 and Day 2 in each treatment cycle. In Arm #2 and Arm #3 of the study, 5-FU will be administered approximately 60 minutes after start of Oxaliplatin or Irinotecan administration, respectively (see description below). The treatment will be repeated every second week for up to eight (8) cycles, i.e. up to sixteen (16) weeks.
ISO-CC-005 is an open clinical phase I/II tolerability and dose definition study designed to evaluate safety and define the [6R]-MTHF dose for continued development. It evaluates four doses of [6R]-MTHF in combination with 5-FU with or without the different combinations of irinotecan or oxaliplatin and bevacizumab in patients with metastatic Colorectal Cancer using 4 different protocols: • MOD+5-FU: [6R]-MTHF in combination with 5-FU only, similar to Nordic FLV protocol • MOD+FLIRI: [6R]-MTHF in combination with 5-FU and Irinotecan, similar to Nordic FLIRI protocol • MOD+FLOX: [6R]-MTHF in combination with 5-FU and Oxaliplatin, similar to Nordic FLOX protocol • MOFOX: [6R]-MTHF in combination with 5-FU and Oxaliplatin, similar to FOLFOX-6 protocol
In one of the treatment protocols (MOFOX) the total dose of [6R]-MTHF was divided into two i.v. bolus injections dispensed approximately 30 and 60 minutes after the initial administration of 5-FU bolus injection (at 0 minute), respectively.
3 patients in total had at this point been treated according to the MOFOX protocol.
By December 2017 the first-line patients were assessed again after 16 weeks of treatment (16 weeks is considered the standard schedule for cancer treatment according to clinical practice guidelines for ESMO (European Society for Medical Oncology)). Four (4) 1st line patients could not be followed for the additional 8 weeks' treatment due to study protocol formalities, and no further 1st line patients had been analysed at this point.

Thymidylate Synthase = Thymidylate Synthase (Lacticaseibacillus casei, UniProt P00469); details: cited from earlier work
Sequence of Thymidylate Synthase (P00469 whole entry): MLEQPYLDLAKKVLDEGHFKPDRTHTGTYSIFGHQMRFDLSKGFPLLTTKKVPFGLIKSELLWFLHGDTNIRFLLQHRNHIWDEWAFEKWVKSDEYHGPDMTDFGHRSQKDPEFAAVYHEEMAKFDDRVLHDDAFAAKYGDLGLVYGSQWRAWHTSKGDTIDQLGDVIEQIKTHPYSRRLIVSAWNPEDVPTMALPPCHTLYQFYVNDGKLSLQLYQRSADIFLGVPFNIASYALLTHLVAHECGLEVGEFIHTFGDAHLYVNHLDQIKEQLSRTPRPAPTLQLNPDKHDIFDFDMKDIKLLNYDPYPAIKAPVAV

[7] = of 8 first-line patients, 16 weeks
[8] = of 13 patients analyzed by August 2017, 8 weeks
[9] = of first 12 first-line patients, 8 treatment weeks

## O=c1[nH]cc(F)c(=O)[nH]1 [5-FU, 5-fluorouracil]
Colorectal tumors; 5-FU given as a monotherapy
  response rate: around 10%
Solid tumors; 5-FU alone
  overall response rate: 10-15%
[1]
  Response rates: around 30%
  survival time: around 6 months

## Nc1nc(=O)c2c([nH]1)NCC1CN(c3ccc(C(=O)N[C@@H](CCC(=O)[O-])C(=O)[O-])cc3)CN21.[Ca+2] (stereo partly drawn) [CoFactor, (dl)-5,10,-methylenepteroyl-monoglutamate calcium salt]
[2]
  response rate: 35%
Pancreas cancer
  clinical benefit, defined as stable disease or tumor response, patients: 40%
[3]
  patients reporting at least one AE of grade 3 or greater: 7.7%
Colorectal cancer; Phase IIb study, colorectal cancer
  efficacy and safety compared with leucovorin: no significant differences
Colorectal cancer
  ORR: 10.7%

## Nc1nc2c(c(=O)[nH]1)N(C=O)C(CNc1ccc(C(=O)N[C@@H](CCC(=O)O)C(=O)O)cc1)CN2 (stereo partly drawn) [LV, 5-formyl tetrahydrofolic acid]
Colorectal tumors; Leucovorin (LV) added to 5-FU
  response rate: 21%
[4]; LV 60 mg/m^2 BSA (racemate; active compound 30 mg/m^2), bolus with 5-FU 500 mg/m^2, 24 hours, n=48
  Mean (t24-t0) plasma dUrd: 48.7 pmol/mL
[3]
  patients reporting at least one AE of grade 3 or greater: 3.3%
Colorectal cancer
  ORR: 13.3%
Solid tumors; LV added to 5-FU
  overall response rates: over 20%

## Nc1nc2c(c(=O)[nH]1)N1CN(c3ccc(C(=O)N[C@@H](CCC(=O)O)C(=O)O)cc3)C[C@H]1CN2 [[6R]-MTHF, [6R]-5,10-methylenetetrahydrofolate]
[4]; [6R]-MTHF 30 mg/m^2 BSA bolus with 5-FU 500 mg/m^2, 24 hours, n=18
  Mean (t24-t0) plasma dUrd: 74.7 pmol/mL
[4]; [6R]-MTHF 30 mg/m^2 vs LV 60 mg/m^2, p=0.03
  level of dUrd vs equimolar LV, together with 5-FU: significantly higher
[4]; [6R]-MTHF 60 mg/m^2 BSA bolus with 5-FU 500 mg/m^2, 24 hours, n=16
  Mean (t24-t0) plasma dUrd: 91.8 pmol/mL
[4]; dUrd measurements incl. 120 mg vs 240 mg, ISO-CC-005
  TS inhibition from fixed doses of 5-FU vs [6R]-MTHF dose (dUrd): dose dependent and flattens off att very high doses
[5]; 12 first-line patients
  safety profile compared to other patients in the study or historical control: no signs of an impaired safety profile
[5]; 37 patients analyzed by September 2017 (2 patients)
  patients reporting a GI adverse event (nausea, vomiting and/or dehydration) of grade 3 or greater: 5.4%
[5]; ISO-CC-005 results so far
  toxicity of 5-FU when combined with [6R]-MTHF compared to 5-FU with other folate adjuvants: reduced
[6]; 8 remaining first-line patients, 16 weeks of treatment
  ORR: 63%
[6]; 12 first-line patients group
  ORR (objective response rate): 50%
[6]; 12 first-line patients, 8 weeks
  first-line patients with progressive disease (PD): none
[6]; 13 patients (12 first-line + 1 second-line), RECIST 1.1
  ORR (objective response rate): 54%
[6]; [6R]-MTHF and 5-FU, treatment period of at least 8 weeks
  progression of solid tumors between 8 and 16 weeks after initializing treatment: no patient displayed tumor progression; also recorded: No statistically significant progression
[6]; [6R]-MTHF combined with 5-FU, colorectal cancer
  clinical benefit, defined as stable disease or partial response, treated patients: > 90%
[6]; colorectal cancer patients, boluses interspaced by about 10-60 minutes
  ORRs achieved with initial 5-FU followed by multiple IV boluses of [6R]-MTHF: 60-80% and 60-85%
[6]; group treated with at least 60 mg/m2 [6R]-MTHF, 5 out of 7 patients, 8 weeks
  patients with partial response (PR): 71%
[6]; [7]
  patients showing partial response: 5 patients
  patients showing stable disease: 3 patients
[6]; [8]
  patients showing partial response: 7 patients
  patients showing stable disease: 6 patients
[6]; [9]
  patients showing partial response (PR): 6 patients
  patients showing stable disease: 6 patients

## Nc1nc2c(c(=O)[nH]1)N1CN(c3ccc(C(=O)N[C@@H](CCC(=O)O)C(=O)O)cc3)C[C@@H]1CN2 [[6S]-MTHF]
Thymidylate Synthase
  effect on the natural [6R]-isomer as co-substrate for TS: partial competitive inhibitor
